Test results published in publication PMC10567728, “Targeted imaging of uPAR expression in vivo with cyclic AE105 variants” (Scientific Reports, 2023).
Where “and” joins values, the source holds several entries; their conditions need not be identical. Equal entries are not always repeated. Positions of bridges follow the written chain, without caps; N, C: chain ends. Non-standard residues stand in square brackets, D forms with d. Residues, ends and D or L forms follow the SMILES beside them. *: point of attachment. DOTA = O=C(O)CN1CCN(CC(=O)O)CCN(CC(=O)*)CCN(CC(=O)O)CC1; Cha = N[C@@H](CC1CCCCC1)C(=O)O

Experiments:
uPAR•uPA interaction = molecular target: T1, uPAR•uPA interaction (Homo sapiens, UniProt Q03405); assay: SPR competition assay of the uPAR•uPA interaction; assay type: binding; conditions: for IC50: competition of uPAR•uPA interaction, 2 nM uPAR, 20 °C, n = 3
T1 construct: Recombinant human uPAR^1–283 was expressed; made in house; host or cells: Drosophila melanogaster S2 cells
Experimental: The IC50-values of antagonistic peptides on the uPAR•uPA interaction were determined with SPR using a Biacore T200™ or Biacore 3000™ instruments (Cytiva) essentially as described[4],[56],[77]. In brief, we immobilized high levels of pro-uPA^S356A (0.1 pmol pro-uPA/mm^2) on a CM5 sensor chip via amine coupling. The experiments were conducted by injecting 2 nM uPAR in presence of a threefold dilution series of a given antagonistic peptide for 300 s with a flow rate of 50 µL/min at 20 °C. The high immobilization levels result in binding conditions that are entirely controlled by mass transport limitations (MTL). Accordingly, the observed association rates (vobs) are directly proportional to the concentrations of binding-active uPAR in solution. To determine the IC50, we also measured a standard curve of uPAR binding (a twofold dilution series of 0.06 to 2 nM uPAR, linear due to MTL). The running buffer was 10 mM HEPES, 150 mM NaCl, 3 mM EDTA, and 0.05% (v/v) surfactant P-20 at pH 7.4, and the regeneration buffer was 0.1 M acetic acid in 0.5 M NaCl.

uPAR [1] = molecular target: T2, uPAR (Homo sapiens, UniProt Q03405); assay: Nano-DSF thermal stability of uPAR•peptide complexes; conditions: for Tm (apparent melting temperature of uPAR•peptide complex): 15 µM uPAR, 30 µM peptide, PBS pH 7.4, n = 3; for decrease in apparent Tm on introduction of spacer: (4) vs (1), (6) vs (3)
T2 construct: Recombinant human uPAR^1–283 was expressed; made in house; host or cells: Drosophila melanogaster S2 cells
Experimental: The thermal stability of the uPAR•peptide complexes was analyzed with Nano-DSF using a Prometheus NT.48™ (Nanotemper). uPAR (15 µM) was mixed with twofold excess of peptide (30 µM) in PBS pH 7.4 and incubated for 15 min at RT to ensure complex formation. Samples containing either 15 µM uPAR or 30 µM of each peptide were included as controls. The samples were loaded into standard capillaries and in triplicates. To unfold the proteins, the samples were exposed to an increasing temperature gradient from 20 to 95 °C with a ramping rate of 1 °C/min. The excitation power was set to 50% (Ex.280 nm) and the fluorescence emission collected at 330 nm and 350 nm. The melting temperatures of the complexes were determined in the PR.ThermControl software (Nanotemper) from the first derivative of the fluorescence ratio (350 nm/330 nm).

uPAR [2] = molecular target: T2, uPAR; assay: SPR real-time binding kinetics, peptides in solution and immobilised uPAR; conditions: for kon: read-out: kon
Experimental: The real-time binding kinetics of uPAR•peptide interactions were measured with SPR using a Biacore T200™(Cytiva); essentially as described in[56],[77]. In brief, uPAR was covalently immobilised on a CM5 sensor chip via amine coupling resulting in a surface density of 1157–1581 RU (~ 33–44 fmol/mm^2). The binding kinetics for the peptides to immobilised uPAR were measured using a single cycle protocol. In this setup, peptides were injected as five serial two-fold dilutions with a contact time of 200 s. After the last analyte injection, the dissociation time was set to 1000 s. The sensor chip was regenerated with two consecutive injections of 0.1 M acetic acid in 0.5 M NaCl. All experiments were conducted at 20 °C with a flow rate of 50 µL/min in 10 mM HEPES, 150 mM NaCl, 3 mM EDTA, and 0.05% (v/v) surfactant P-20 at pH 7.4. The kinetic rate constants (kon and koff) were determined by non-linear regression fitting of the curves to the simple bimolecular interaction model (BiacoreT200 Evaluation™ 3.0 software).

[3] = system: uPAR expression in U87MG tumor-bearing mice; assay type: in vivo; conditions: [64Cu]Cu-DOTA peptides, PET scanning or ex vivo counting of resected organs
Experimental: Five weeks old female NMRI nude mice were purchased from Janvier (Le Genest-Saint-Isle, France) and housed in groups to acclimatize for a week upon arrival with light/dark period of 12/12 h and under controlled environmental conditions (temperature: 20–22 °C, relative humidity: 55%). Access to fresh water and standard pellet diet was provided ad libitum. Human glioblastoma cancer cell line U87MG (ATCC, Manassas, USA) was cultured in Dulbecco’s modified eagle medium (DMEM) supplemented with 10% fetal bovine serum and 1% penicillin–streptomycin at 37 °C and 5% CO2. Cells were harvested by trypsinization at a confluence of 70–90%. Mice were anesthetized (3–4% sevoflurane in 65% N2 and 35% O2) and ~ 4 × 10^6 U87MG cells resuspended in 100 μL PBS were injected subcutaneously into the right flank. Tumors were allowed to grow for 20 days. Tumor sizes were monitored using caliper measurements (Volume = 0.5 x (Length x Width^2)).
Tumor-bearing mice (tumor volumes (mean ± SD) of 221 ± 105 mm^3) were grouped (n = 6 per group) and anesthetized (3–4% sevoflurane in 65% N2 and 35% O2) prior to imaging. The four different [^64Cu]Cu–DOTA conjugated peptides were administered via tail vein injections of 5.4 ± 0.4 MBq corresponding to 118 ± 7 pmol (1b), 111 ± 4 pmol (8b), 92 ± 3 pmol (9b), and 75 ± 4 pmol (11b) (mean ± SD). Whole-body imaging consisting of a CT acquisition followed by a static PET acquisition was performed on an Inveon® small animal imaging system (Siemens Medical Systems, Malvern, PA, USA). PET/CT imaging was performed 1 h, 22 h, and 46 h post-injection (p.i.) of tracer with a 5 min, 10 min and 15 min PET scan, respectively. During scans the animals were placed on a heated bedding system to keep the body temperature stable. The PET acquisition was performed with an energy window of 350–650 keV and a time resolution of 6 ns, and data was corrected for dead time and decay. The CT scan consisted of 360 projections, with a tube voltage of 65 kV, a tube current of 500 μA and an exposure time of 400 ms per projection. Sinograms from PET scans were reconstructed using a 3-dimensional maximum a posteriori algorithm with correction for scatter and attenuation (CT-based). PET and CT images were co-registered and analyzed using Inveon Research Workplace software (Siemens Medical Solutions). The mean percentage of injected dose per grams (%ID/g) in different tissues was extracted by manually creating regions of interest (ROI) on fused PET/CT images.

uPAR [4] = conditions: read-out: KD of the uPA•uPAR interaction; cited from earlier work
[5] = DOTA-conjugated peptides with spacer, compared to (4b)
[6] = single cycle SPR, immobilised uPAR, 20 °C
[7] = single cycle SPR, immobilised uPAR, 20 °C, 1:1 model
[8] = [63Cu]-DOTA labelled peptides, single-cycle SPR

T1 sequence (Q03405 23-305): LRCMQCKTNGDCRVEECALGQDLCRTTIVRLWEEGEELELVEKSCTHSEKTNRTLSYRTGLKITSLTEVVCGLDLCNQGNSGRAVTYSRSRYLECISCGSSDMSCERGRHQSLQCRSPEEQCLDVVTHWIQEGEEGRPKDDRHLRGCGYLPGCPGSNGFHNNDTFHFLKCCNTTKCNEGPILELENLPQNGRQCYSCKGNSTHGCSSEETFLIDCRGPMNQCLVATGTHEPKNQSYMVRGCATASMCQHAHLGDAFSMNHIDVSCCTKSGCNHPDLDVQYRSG
T2 sequence (Q03405 23-305): as above

IC50 (uPAR•uPA interaction)	koff (uPAR [2]; [6])	Kd (uPAR [2]; [7])	kon (uPAR [2]; [6])	Compound	Tm (apparent melting temperature of uPAR•peptide complex) (uPAR [1])	further results
15.8 ± 0.4 nM	0.00977 ± 1e-05 s⁻¹	20.3 nM	481000 ± 1000 M⁻¹ s⁻¹	CC(C)C[C@@H]1NC(=O)[C@H](Cc2ccc(O)cc2)NC(=O)[C@H](NC(=O)[C@@H](CO)NC(=O)[C@H](Cc2ccccc2)NC(=O)[C@H](CC2CCCCC2)NC(=O)[C@H](CC(=O)O)NC(=O)CNC(=O)CNC(=O)[C@@H](CO)NC(=O)CNC(=O)[C@H](CCC(=O)O)NC(=O)[C@H](CCC(=O)O)NC(=O)CN2CCN(CC(=O)O)CCN(CC(=O)O)CCN(CC(=O)O)CC2)CSSC[C@@H](C(=O)O)NC(=O)[C@H](Cc2c[nH]c3ccccc23)NC1=O [6b] ({DOTA}-EEG[dS]GGD[Cha]F[dS][dC]YLWC-OH; disulfide 11-15)	61.3 ± 0.4 °C	increase in apparent Tm (uPAR [1]; [5]): 6–14 °C
4.8 ± 0.2 nM	0.001367 ± 1e-06 s⁻¹	3.18 nM	429700 ± 400 M⁻¹ s⁻¹	CC(C)C[C@H](NC(=O)[C@H](Cc1ccc(O)cc1)NC(=O)[C@@H](CCCNC(=N)N)NC(=O)[C@@H](CO)NC(=O)[C@H](Cc1ccccc1)NC(=O)[C@H](CC1CCCCC1)NC(=O)[C@H](CC(=O)O)NC(=O)CNC(=O)CNC(=O)[C@@H](CO)NC(=O)CNC(=O)[C@H](CCC(=O)O)NC(=O)[C@H](CCC(=O)O)NC(=O)CN1CCN(CC(=O)O)CCN(CC(=O)O)CCN(CC(=O)O)CC1)C(=O)N[C@@H](Cc1c[nH]c2ccccc12)C(=O)N[C@@H](CO)C(N)=O [10b] ({DOTA}-EEG[dS]GGD[Cha]F[dS][dR]YLWS-NH2)	66.2 ± 0.3 °C	increase in apparent Tm (uPAR [1]; [5]): 6–14 °C
	0.00558 ± 1e-05 s⁻¹		280000 ± 1000 M⁻¹ s⁻¹	CC(C)C[C@H](NC(=O)[C@H](Cc1ccc(O)cc1)NC(=O)[C@@H](CCCNC(=N)N)NC(=O)[C@@H](CO)NC(=O)[C@H](Cc1ccccc1)NC(=O)[C@H](CC1CCCCC1)NC(=O)[C@H](CC(=O)O)NC(=O)CNC(=O)CNC(=O)[C@@H](CO)NC(=O)CNC(=O)[C@H](CCC(=O)O)NC(=O)[C@@H](N)CCC(=O)O)C(=O)N[C@@H](Cc1c[nH]c2ccccc12)C(=O)N[C@@H](CO)C(=O)O [compound 4] (H-EEG[dS]GGD[Cha]F[dS][dR]YLWS-OH; N-terminus assumed)	55.2 °C and 55.2 ± 0.2 °C	fold increase in the IC50-value (uPAR•uPA interaction; compared to AE105 (1)): 2.7 fold; decrease in apparent Tm on introduction of spacer (uPAR [1]): 10 °C
	0.01033 ± 3e-05 s⁻¹		611000 ± 3000 M⁻¹ s⁻¹	CC(C)C[C@@H]1NC(=O)[C@H](Cc2ccc(O)cc2)NC(=O)[C@H](NC(=O)[C@@H](CO)NC(=O)[C@H](Cc2ccccc2)NC(=O)[C@H](CC2CCCCC2)NC(=O)[C@H](CC(=O)O)NC(=O)CNC(=O)CNC(=O)[C@@H](CO)NC(=O)CNC(=O)[C@H](CCC(=O)O)NC(=O)[C@@H](N)CCC(=O)O)CSSC[C@@H](C(=O)O)NC(=O)[C@H](Cc2c[nH]c3ccccc23)NC1=O [compound 6] (H-EEG[dS]GGD[Cha]F[dS][dC]YLWC-OH; disulfide 11-15; N-terminus assumed)	60.6 °C and 60.6 ± 0.7 °C	increase in potency (uPAR•uPA interaction; compared to (4)): 1.4 fold; increase in potency (uPAR•uPA interaction; compared to (5)): 11 fold; decrease in apparent Tm on introduction of spacer (uPAR [1]): 10 °C; increase in thermal stability (apparent Tm) (uPAR [1]; disulfide-bonded peptide compared to linear peptide (4)): 5 °C; association rate constant (kon) compared to (4) (uPAR [2]): improved ~ twofold; dissociation rate constant (koff) compared to (4) (uPAR [2]): ~ twofold impairment
	0.001497 ± 2e-06 s⁻¹		595000 ± 1000 M⁻¹ s⁻¹	CC(C)C[C@H](NC(=O)[C@H](Cc1ccc(O)cc1)NC(=O)[C@@H](CCCNC(=N)N)NC(=O)[C@@H](CO)NC(=O)[C@H](Cc1ccccc1)NC(=O)[C@H](CC1CCCCC1)NC(=O)[C@H](CC(=O)O)NC(=O)CNC(=O)CNC(=O)[C@@H](CO)NC(=O)CNC(=O)[C@H](CCC(=O)O)NC(=O)[C@@H](N)CCC(=O)O)C(=O)N[C@@H](Cc1c[nH]c2ccccc12)C(=O)N[C@@H](CO)C(N)=O [compound 10] (H-EEG[dS]GGD[Cha]F[dS][dR]YLWS-NH2; N-terminus assumed)	~ 65 °C	fold increase in potency on C-terminal amidation (uPAR•uPA interaction; (8) vs (1) and (10) vs (4)): 5.6 fold
				urokinase-type plasminogen activator [uPA]		Kd (uPAR [4]): 0.02 nM

Compound	IC50 (uPAR•uPA interaction)	koff (uPAR [2]; [6])	Kd (uPAR [2]; [7])	kon (uPAR [2]; [6])	Tm (apparent melting temperature of uPAR•peptide complex) (uPAR [1])	further results
CC(C)C[C@H](NC(=O)[C@H](Cc1ccc(O)cc1)NC(=O)[C@@H](CCCNC(=N)N)NC(=O)[C@@H](CO)NC(=O)[C@H](Cc1ccccc1)NC(=O)[C@H](CC1CCCCC1)NC(=O)[C@H](CC(=O)O)NC(=O)CN1CCN(CC(=O)O)CCN(CC(=O)O)CCN(CC(=O)O)CC1)C(=O)N[C@@H](Cc1c[nH]c2ccccc12)C(=O)N[C@@H](CO)C(N)=O [8b]	8.2 ± 0.1 nM	0.002064 ± 2e-06 s⁻¹	4.22 nM	490000 ± 1000 M⁻¹ s⁻¹	~ 70 °C	IC50 of DOTA-conjugated peptide compared to unconjugated peptide (uPAR•uPA interaction; (1b) vs (1), (8b) vs (8)): four to fivefold higher; tumor uptake and imaging contrast, (1b) compared with (8b) [3]: no significant differences; increase in apparent Tm (uPAR [1]; DOTA-conjugated peptides, compared to (1b)): approximately 11 °C; Kd (uPAR [2]; [8]): 13.9 nM; koff (uPAR [2]; [8]): 0.00425 ± 1e-05 s⁻¹; reduction of affinity on DOTA-conjugation (uPAR [2]; real-time binding kinetics, vs unconjugated peptides): 8–11 fold
